Results on 4 compounds are retold here after patent publication US12702656B2, “ALA and salt formulation” (Molecular Product Management LLC, priority 2016, dated 2026).

Broadly, the pKa is the negative logarithm of the acid dissociation constant.

For series [1] the following is noted: cited from earlier work.
Series [2] is described as follows: Oral dissolve acceptability / ALA burn of ALA lozenges and tablets in users. The following applies: salt added to, or salt form used in, oral dissolve ALA formulation.
Description: These tablets are circular, 9 mm in diameter, approximately 5 mm thick, having a weight of approximately 0.35 g and dissolution times of about 3.5 minutes.
Such NaCl-tablet and Non-Salt-tablet formulations being referred to as “NaCl-formulations” and “Non-Salt-formulation” respectively.
One way to specify or measure the difference resulting from the addition of any organic or inorganic salt (such as NaCl) to a formulation, is to measure the degree to which the Salt-formulation has less of an ALA burn than the Non-Salt-formulation when dissolved in the mouth.
The conditions of series [3]: antacid taken with ALA taken orally (ingested); found by some individuals. The source says: Some of the ALA in the saliva is swallowed during oral dissolve administration, therefore the esophagus and stomach encounter some ALA and may be irritated by it, particularly in humans and non-human species with sensitive stomachs.

Molecules are shown by their SMILES.

On to `O=C(O)CCCCC1CCSS1` (stereo not drawn) [ALA, Alpha-lipoic acid], for which the pKa in series [1] is 4.7.

For the compound `[Cl-].[Na+]` [NaCl, sodium chloride], the “reduction of ALA burn (burning sensation in the mouth)” value in series [2] is listed as “reduces the ALA burn during oral dissolution”.

Take `O=C([O-])CCCC[C@@H]1CCSS1.[Na+]` [Na—R-ALA]: in series [2], the “reduction of ALA burn (burning sensation in the mouth)” value is given as “further reduction of the ALA burning and/or rawness problems”.

For `O=C([O-])[O-].[Ca+2]` [calcium carbonate], in series [3], the stomach irritation entry is on record as “reduces this stomach irritation”.
